Measurements taken from ChEMBL document CHEMBL1201862, “PubChem BioAssay data set” (2004).
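A five-concentration, 48-hour dose response in 96-well plates underlies each endpoint, interpolated linearly between surrounding concentrations. The concentration for 50% growth inhibition is given as GI50.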 Calls of active or inactive are those of the source. Cut-off read from the data, not from the text of the source: active = GI50 up to about 1.1 µM and inactive = higher.

How the values were obtained:
Assay in all cases: inhibition of tumour cell growth, NCI panel, 48 h
786-0 = tested on: 786-0
COLO 205 = tested on: COLO 205
HCC 2998 = tested on: HCC 2998
HCT-116 = tested on: HCT-116
HOP-62 = tested on: HOP-62
K562 = tested on: K562
LOX IMVI = tested on: LOX IMVI
MDA-N = tested on: MDA-N
NCI-H23 = tested on: NCI-H23
NCI-H460 = tested on: NCI-H460
OVCAR-3 = tested on: OVCAR-3
RXF 393 = tested on: RXF 393
SF-268 = tested on: SF-268
SF-295 = tested on: SF-295
SF-539 = tested on: SF-539
SK-MEL-28 = tested on: SK-MEL-28
SK-OV-3 = tested on: SK-OV-3
SNB-19 = tested on: SNB-19
SW-620 = tested on: SW-620
U-251 = tested on: U-251

SMILES | GI50 (786-0) | GI50 (COLO 205) | GI50 (HCC 2998) | GI50 (HCT-116) | GI50 (HOP-62) | GI50 (K562) | GI50 (LOX IMVI) | GI50 (MDA-N) | GI50 (NCI-H23) | GI50 (NCI-H460) | GI50 (OVCAR-3) | GI50 (RXF 393) | GI50 (SF-268) | GI50 (SF-295) | GI50 (SF-539) | GI50 (SK-MEL-28) | GI50 (SK-OV-3) | GI50 (SNB-19) | GI50 (SW-620) | GI50 (U-251)
O=C1O/C(=C(/Br)c2ccc(Cl)c(Cl)c2)c2ccccc21 | > 10 µM (inactive) | > 10 µM (inactive) | > 10 µM (inactive) | > 10 µM (inactive) | > 10 µM (inactive) | > 10 µM (inactive) | > 10 µM (inactive) | > 10 µM (inactive) | > 10 µM (inactive) | > 10 µM (inactive) | > 10 µM (inactive) | > 10 µM (inactive) | > 10 µM (inactive) | > 10 µM (inactive) | > 10 µM (inactive) | > 10 µM (inactive) | > 10 µM (inactive) | > 10 µM (inactive) | > 10 µM (inactive) | > 10 µM (inactive)
COC(=O)[C@H]1[C@@H](C(C)C)O[C@@H](C(C)C)O[C@H]1C(F)(F)F | > 100 µM (inactive) | > 100 µM (inactive) | > 100 µM (inactive) | > 100 µM (inactive) | > 100 µM (inactive) | > 100 µM (inactive) | > 100 µM (inactive) | > 100 µM (inactive) | > 100 µM (inactive) | > 100 µM (inactive) | > 100 µM (inactive) | > 100 µM (inactive) | > 100 µM (inactive) | > 100 µM (inactive) | > 100 µM (inactive) | > 100 µM (inactive) | > 100 µM (inactive) | > 100 µM (inactive) | > 100 µM (inactive) | > 100 µM (inactive)
COc1cc2cc(C(=O)N3CC(COS(C)(=O)=O)c4c3cc([N+](=O)[O-])c3ccccc43)[nH]c2c(OC)c1OC (stereo not given) | 0.752 µM (active) | > 35.6 µM (inactive) | 0.291 µM (active) | 1.24 µM (inactive) | 7.57 µM (inactive) | > 100 µM (inactive) | 33.2 µM (inactive) | 19.5 µM (inactive) | 2.78 µM (inactive) | 0.0986 µM (active) | > 31.6 µM (inactive) | 18.3 µM (inactive) | 10.5 µM (inactive) | 2.37 µM (inactive) | 4.05 µM (inactive) | > 31.6 µM (inactive) | 61.9 µM (inactive) | > 31.6 µM (inactive) | 1.79 µM (inactive) | > 31.6 µM (inactive)
O=C(N/C(=C\NC1=NCCS1)C(=O)N1CSC[C@@H]1C(=O)O)c1ccccc1 | 77.8 µM (inactive) | > 100 µM (inactive) | > 100 µM (inactive) | > 100 µM (inactive) | > 100 µM (inactive) | > 100 µM (inactive) | > 100 µM (inactive) | > 100 µM (inactive) | > 100 µM (inactive) | > 100 µM (inactive) | > 100 µM (inactive) | > 100 µM (inactive) | > 100 µM (inactive) | > 100 µM (inactive) | > 100 µM (inactive) | > 100 µM (inactive) | > 100 µM (inactive) | > 100 µM (inactive) | > 100 µM (inactive) | > 100 µM (inactive)
C=C(C)CNC(=S)N(N)c1ccc2ccccc2c1 | > 100 µM (inactive) | > 100 µM (inactive) | 47.3 µM (inactive) | > 100 µM (inactive) | > 100 µM (inactive) | 40.4 µM (inactive) | > 100 µM (inactive) | > 100 µM (inactive) | > 100 µM (inactive) | > 100 µM (inactive) | 88.5 µM (inactive) | > 100 µM (inactive) | 78 µM (inactive) | 94.2 µM (inactive) | > 100 µM (inactive) | > 100 µM (inactive) | > 100 µM (inactive) | > 100 µM (inactive) | > 100 µM (inactive) | > 100 µM (inactive)
